The results in this text go back to PMC3128364 (Journal of Clinical Biochemistry and Nutrition, 2011).

For this assay, the target named is T1, intestinal maltase.
T1 construct: gene Mgam; native, crude extract of rat intestinal acetone powder (Sigma)
The assay can be described thus: glucose release from maltose, glucose oxidase kit. Particulars: 37 mM maltose (70 µL), 0.1 M phosphate pH 6.9, 37 °C, 30 min. It counts as biochemical, Rattus norvegicus.

Regarding `C[C@H]1O[C@H](O[C@H]2[C@H](O)[C@@H](O)[C@@H](O[C@H]3[C@H](O)[C@@H](O)C(O)O[C@@H]3CO)O[C@@H]2CO)[C@H](O)[C@@H](O)[C@@H]1N[C@H]1C=C(CO)[C@@H](O)[C@H](O)[C@H]1O` (some centres unmarked) [Acarbose], the half-inhibitory concentration (IC50) was 2.7 ± 0.1 µM.
As for `C[C@@H]1O[C@@H](OC[C@H]2O[C@@H](Oc3cc4c(O)cc(O)cc4[o+]c3-c3ccc(O)c(O)c3)[C@H](O)[C@@H](O)[C@@H]2O)[C@H](O)[C@H](O)[C@H]1O` [C3R, cyanidin-3-rutinoside], the figure is 2320 µM.

In general, IC50 refers to the midpoint of a concentration-inhibition curve. Low values mean higher potency, high ones lower potency.
